Source: patent US9676811B2, “Testosterone derivatives with a carboxyalkyl substitution in position 3 and use thereof for the production of labelled steroids for determining the concentration of testosterone in a biological sample” (BIOMERIEUX, priority 2012, dated 2017)

Key:
Type in all cases: binding
[1] = tested on: sheep anti-testosterone monoclonal antibody clone 3.6A3 (Ab3); assay: Microplate competitive testosterone immunoassay, Ab3 + Conjugate 2 of the invention, streptavidin-peroxidase/TMB; settings: for B/B0% / OD450-OD630: conjugate 0.2 ng/well
Experimental: 100 μl/well of the mouse anti-goat Fe IgG monoclonal antibody (clone 9A4A5, bioMerieux) diluted to 10 μg/ml in PBS buffer 1× is distributed in a 96-well microplate (Nunc Maxisorp F96). The microplate is incubated overnight at room temperature in order to obtain adsorption of the antibody. The microplate is emptied, and then 300 μl/well of passivating buffer (buffer Tris 0.2 M pH 6.2) containing a saturating agent of the protein or peptide type, and the sheep anti-testosterone monoclonal antibody clone 3.6A3 (Ab3-bioVentix) diluted to 0.2 μg/ml are added. The microplate is incubated for 1 h at 37° C. Three washings are carried out with TBS (Tris buffered saline)-Tween®-20 0.05%. The range points used in example 10 are diluted to 1/2 in Tris buffer; 100 μl of these dilutions are distributed in the wells of the plate. After incubation for 1 h at 37° C., the wells are emptied and 0.2 ng/well of Conjugate 2 of the invention testosterone-3β-EMC-DAP-biotin in Tris buffer is added. The reaction with the conjugate is carried out for 15 minutes at 37° C., and is followed by 3 washings. 100 μl/well of streptavidin-peroxidase solution (Jackson Immunoresearch Cat. No. 016-30-084) diluted to 1/20 000 in TBS-Tween®-20 0.05%, BSA 2% is added and the microplate is incubated for 30 min at 37° C. After 3 washings, 100 μl/well of the 1-step Ultra TMB substrate (Thermo Scientific, Cat. No. 34028) is added and the microplate is incubated for 5 min at room temperature, away from the light. The reaction is then stopped by adding 100 μl of 2M sulfuric acid. The optical density (OD) at 450 nm and at 630 nm is measured in a microplate reader. For each well, the optical density at 630 nm is subtracted from the optical density at 450 nm.

[2] = tested on: anti-testosterone antibody Ab3 (sheep monoclonal IgG, clone testo3.6A3); assay: VIDAS® competitive testosterone immunoassay, format Ab3 + Conjugate 1 of the invention; settings: for B/B0% / Signal (RFV): conjugate 2.5 ng/ml
Experimental: (§1) Competition then takes place between the testosterone present in the sample and the testosterone derivative of the conjugate for the sites of the anti-testosterone antibody fixed on the cone. The washing steps are carried out with the buffer Tris-NaCl (0.05 mol/l) pH 7.4 or with diethanolamine (1.1 mol/1) pH 9.8 and make it possible to remove the compounds that are not fixed. During the final development step, the substrate 4-methylombelliferyl phosphate is aspirated and then introduced into the cone; the enzyme of the conjugate catalyzes the reaction of hydrolysis of this substrate in 4-methylombelliferone, and the fluorescence emitted from the latter is measured at 450 nm. The value of the fluorescence signal is inversely proportional to the concentration of the testosterone present in the sample. This concentration is calculated relative to a calibration curve.
(§2) For the other assays, we used the reagents of the VIDAS® testosterone kit (Cat. No 30418) and the assay protocol given in the instructions with the kit, with the following modifications: • Cones were sensitized with other anti-testosterone antibodies: 2 mouse monoclonal immunoglobulins G (IgG), the clones 19E10H6 and 15H9H10 (bioMerieux), which will be called Ab1 and Ab2 respectively, and 1 sheep monoclonal IgG, the clone testo3.6A3 (Bioventix), which will be called Ab3. As in the cone of the format of the reference assay, the anti-testosterone antibodies were captured by anti-species polyclonal antibodies adsorbed on the cone beforehand. It is a sheep anti-mouse IgG polyclonal antibody for Ab1 and Ab2, and a donkey anti-sheep IgG polyclonal antibody for Ab3. The anti-species antibodies are diluted to a concentration between 1 and 12 μg/ml in the sensitizing solution. After incubation for 6 h at +18/25° C., washing is carried out with saline solution. Then the solution of anti-testosterone antibodies containing a saturating agent of the protein or peptide type is added (concentration of the antibody: 0.01-0.2 μg/ml). Sensitization/passivation is continued at +18/25° C. overnight. Then the cones are emptied and dried. • The cones sensitized with the antibody Ab1 are tested with the VIDAS® conjugate, diluted to 1/2.5 for the tests with the monoclonal antibody. The cones sensitized with the antibodies Ab2 and Ab3 are tested with conjugate 1 of the invention prepared in example 9. This last-mentioned conjugate is used at a concentration of 3 ng/ml for the tests with the cones sensitized with the antibody Ab2 and 2.5 ng/ml for the cones sensitized with the antibody Ab3. • The conversion to dose is performed based on a standard 10-point range manufactured by supplementing woman's serum with testosterone in ethanolic solution. The nominal concentrations of each of the points are: 0.001 ng/ml-0.03 ng/ml-0.18 ng/ml-0.41 ng/ml-0.76 ng/ml-1.29 ng/ml-1.91 ng/ml-3.82 ng/ml-7.48 ng/ml-11.55 ng/ml. • The sample volume taken for each assay is 200 μl.
(§3) The standard range was measured with each assay format. Table 1 below summarizes the results obtained as RFV signal (relative fluorescence value) and B/B0% ratio, for the dilutions of the standard range. The ratio B/B0 is the signal obtained for the range point tested divided by the signal obtained for the range point 0.001 ng/ml of testosterone, multiplied by 100.

[3] = tested on: anti-testosterone antibody Ab2 (mouse monoclonal IgG, clone 15H9H10); assay: VIDAS® competitive testosterone immunoassay, format Ab2 + Conjugate 1 of the invention; settings: for B/B0% / Signal (RFV): conjugate 3 ng/ml
Experimental: as §1, §2, §3
Secondly, to confirm that the format Ab2+Conjugate 1 of the invention is far more sensitive than the reference format REF, VIDAS® Testosterone kit, for which the measurement range recommended in the instructions extends from 0.1 to 13 ng/ml, these two formats were compared against serum samples obtained from the Etablissements Français du Sang (the French National Blood Service). These were 4 samples collected from women (codes with F), for whom the serum testosterone level is below 1 ng/ml, and 2 samples collected from men (codes with M). […]

[4] = testosterone 0.001 ng/ml range point (diluted to 1/2)
[5] = testosterone 0.03 ng/ml range point (diluted to 1/2)
[6] = testosterone 0.18 ng/ml range point (diluted to 1/2)
[7] = testosterone 0.41 ng/ml range point (diluted to 1/2)
[8] = testosterone 0.76 ng/ml range point (diluted to 1/2)
[9] = testosterone 1.29 ng/ml range point (diluted to 1/2)
[10] = testosterone 3.82 ng/ml range point (diluted to 1/2)
[11] = testosterone 11.55 ng/ml range point (diluted to 1/2)
[12] = testosterone 0.001 ng/ml range point
[13] = testosterone 0.03 ng/ml range point
[14] = testosterone 0.18 ng/ml range point
[15] = testosterone 0.41 ng/ml range point
[16] = testosterone 0.76 ng/ml range point
[17] = testosterone 1.29 ng/ml range point
[18] = testosterone 1.91 ng/ml range point
[19] = testosterone 3.82 ng/ml range point
[20] = testosterone 7.48 ng/ml range point
[21] = testosterone 11.55 ng/ml range point

## CC12CC[C@H](OCC(=O)NCCCNC(=O)CCCCC3SCC4NC(=O)NC43)C=C1CCC1C2CCC2(C)C(O)CCC12 (stereo partly drawn) [Conjugate 2 of the invention, 17-β-Hydroxy-3-β-Carboxymethoxyandrost-4-ene/Biotin]
[1]; FIG. 2
  character of the testosterone assay range versus format Ab2+Conjugate 1 on VIDAS®: comparable
  sensitivity of the microplate assay (comparison): more sensitive than the VIDAS® assays using the VIDAS® Conjugate
[1]; [4]
  B/B0%: 100%
  OD450-OD630: 2.52
[1]; [5]
  B/B0%: 83%
  OD450-OD630: 2.10
[1]; [6]
  B/B0%: 74%
  OD450-OD630: 1.88
[1]; [7]
  B/B0%: 64%
  OD450-OD630: 1.61
[1]; [8]
  B/B0%: 54%
  OD450-OD630: 1.36
[1]; [9]
  B/B0%: 40%
  OD450-OD630: 1.00
[1]; [10]
  B/B0%: 17%
  OD450-OD630: 0.42
[1]; [11]
  B/B0%: 7%
  OD450-OD630: 0.17

## 17β-Hydroxy-3β-Carboxymethoxyandrost-4-ene/Alkaline Phosphatase [Conjugate 1 of the invention]
[2]; FIG. 1
  sensitivity of the assay format (comparison of formats): most sensitive
[2]; from graph of FIG. 1
  testosterone concentration giving a 50% decrease in the signal: about 0.2 ng/ml
[2]; [12]
  B/B0%: 100%
  Signal (RFV): 3209 RFV
[2]; [13]
  B/B0%: 78%
  Signal (RFV): 2492 RFV
[2]; [14]
  B/B0%: 53%
  Signal (RFV): 1700 RFV
[2]; [15]
  B/B0%: 44%
  Signal (RFV): 1403 RFV
[2]; [16]
  B/B0%: 40%
  Signal (RFV): 1286 RFV
[2]; [17]
  B/B0%: 30%
  Signal (RFV): 960 RFV
[2]; [18]
  B/B0%: 31%
  Signal (RFV): 990 RFV
[2]; [19]
  B/B0%: 20%
  Signal (RFV): 644 RFV
[2]; [20]
  B/B0%: 12%
  Signal (RFV): 380 RFV
[2]; [21]
  B/B0%: 6%
  Signal (RFV): 205 RFV
[3]; FIG. 1
  sensitivity of the assay format (comparison of formats): slightly more sensitive than the reference format
[3]; [12]
  B/B0%: 100%
  Signal (RFV): 4077 RFV
[3]; [13]
  B/B0%: 86%
  Signal (RFV): 3490 RFV
[3]; [14]
  B/B0%: 72%
  Signal (RFV): 2935 RFV
[3]; [15]
  B/B0%: 62%
  Signal (RFV): 2527 RFV
[3]; [16]
  B/B0%: 55%
  Signal (RFV): 2238 RFV
[3]; [17]
  B/B0%: 46%
  Signal (RFV): 1880 RFV
[3]; [18]
  B/B0%: 42%
  Signal (RFV): 1729 RFV
[3]; [19]
  B/B0%: 31%
  Signal (RFV): 1264 RFV
[3]; [20]
  B/B0%: 22%
  Signal (RFV): 905 RFV
[3]; [21]
  B/B0%: 16%
  Signal (RFV): 632 RFV
